From patent US20250099448A1, “HETEROCYCLIC COMPOUNDS” (Hoffmann-La Roche Inc., priority 2022, published 2025) come the findings set out here.

For this experiment, the target named is T1, MAGL protein (Homo sapiens, UniProt Q99685).
T1 sequence (Q99685 1-303): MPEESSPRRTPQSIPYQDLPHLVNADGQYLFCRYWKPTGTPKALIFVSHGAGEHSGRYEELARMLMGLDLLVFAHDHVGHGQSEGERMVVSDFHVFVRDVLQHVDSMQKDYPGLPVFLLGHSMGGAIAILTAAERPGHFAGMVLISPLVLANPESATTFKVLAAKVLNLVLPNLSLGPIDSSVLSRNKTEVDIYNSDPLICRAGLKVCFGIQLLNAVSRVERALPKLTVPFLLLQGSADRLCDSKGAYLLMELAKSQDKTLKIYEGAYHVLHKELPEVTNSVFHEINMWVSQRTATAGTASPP
As to the kind of experiment: 2-AG assay: MAGL inhibitory activity by hydrolysis of 2-arachidonoylglycerol to arachidonic acid, followed by mass spectrometry. Format: biochemical. As to conditions: 8 μM 2-arachidonoylglycerol, 15 min preincubation, 30 min reaction at RT, RapidFire MS readout. In outline: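 Activity was measured by RapidFire SPE–triple-quad MS as the ratio of arachidonic acid to d8-arachidonic acid after 2-AG hydrolysis (8 μM substrate, 30 min, RT, acetonitrile quench). Compounds, tested from 12.5 μM down to […], were first preincubated 15 min with MAGL in TRIS/EDTA/Tween-20 buffer containing 2.5% DMSO.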

SMILES strings stand for the structures.

For orientation: IC50 means the concentration at which inhibition is half-maximal. Read a low IC50 as greater potency in that assay. As to `O=C(N1CC(c2ccc(C3CC(O)(C(F)(F)F)C3)cc2)C1)N1CC2(CC(c3nnc(C4CC4)[nH]3)C2)C1` (stereo not shown) [compound 291], half-maximal inhibition (IC50) required 0.57 nM.
`O=C(N1CC(c2ccc(N3CC4(CCCO4)C3)nc2)C1)N1CC2(CC(c3nnc(C4CC4)[nH]3)C2)C1` [compound 293] yielded a half-inhibitory concentration (IC50) of 11.1 nM.
Then `Cc1cc(C)n(-c2ccc(C3CN(C(=O)N4CC5(CC(c6nnc(C7CC7)[nH]6)C5)C4)C3)cc2)n1` [compound 294], with 0.56 nM; and `O=C(N1CC(c2ccc(C3(CO)CC3)cc2)C1)N1CC2(CC(c3nnc(C4CC4)[nH]3)C2)C1` [compound 295], with 1.41 nM; and `CS(=O)(=O)c1cc(C2CN(C(=O)N3CC4(CC(c5nnc(C6CC6)[nH]5)C4)C3)C2)ccc1C1CCC1` [compound 297], with 3.16 nM.
Then `CC(C)(O)C1CN(c2ccc(C3CN(C(=O)N4CC5(CC(c6nnc(C7CC7)[nH]6)C5)C4)C3)cn2)C1` [compound 298], with 8.03 nM.
As to `CC(C)(C)Cc1ccc(C2CN(C(=O)N3CC4(CC(c5nnc(C6CC6)[nH]5)C4)C3)C2)cn1` [compound 299], it took 0.05 nM to reach half-maximal inhibition (IC50).
As for `O=C(N1CC(c2ccc([C@H]3C[C@H](C(F)(F)F)C3)nc2)C1)N1CC2(CC(c3nnc(C4CC4)[nH]3)C2)C1` [compound 300], half-maximal inhibition (IC50) was put at 1 nM.
Then `O=C(N1CC(c2ccc([C@H]3C[C@H](C(F)F)C3)nc2)C1)N1CC2(CC(c3nnc(C4CC4)[nH]3)C2)C1` [compound 301], with 1.69 nM; and `O=C(N1CC(c2ccc(N3CC4(CCCC4)C3)nc2)C1)N1CC2(CC(c3nnc(C4CC4)[nH]3)C2)C1` [compound 302], with 0.48 nM; and `COc1cc(C(F)(F)F)ccc1COC1CN(C(=O)N2CC3(CC(c4nnc(C5CC5)[nH]4)C3)C2)C1` [compound 307], with 0.44 nM.
Consider `O=C(N1CC(OCc2ccc(S(=O)(=O)C(F)(F)F)cc2F)C1)N1CC2(CC(c3nnc(C4CC4)[nH]3)C2)C1` [compound 309], for which inhibition was half-maximal at 2.2 nM (IC50).
In the case of `N#Cc1c(OC2CN(C(=O)N3CC4(CC(c5nnc(C6CC6)[nH]5)C4)C3)C2)cccc1C1CC1` [compound 310] it was 2.3 nM; in that of `O=C(N1CC(OCc2ccc(C(F)(F)F)cc2F)C1)N1CC2(CC(c3nnc(C4CC4)[nH]3)C2)C1` [compound 311], 2.35 nM.
`O=C(N1CC(Oc2ccc(C3CC3)cc2)C1)N1CC2(CC(c3nnc(C4(O)CC4)[nH]3)C2)C1` [compound 312] returned a half-maximal inhibitory concentration (IC50) of 2.97 nM.
Then `O=C(N1CC(Oc2ccc(C3CC3)cc2F)C1)N1CC2(CC(c3nnc(C4(O)CC4)[nH]3)C2)C1` [compound 313], with 4.59 nM; and `O=C(N1CC(Oc2ccc(C(F)(F)F)nn2)C1)N1CC2(CC(c3nnc(C4CC4)[nH]3)C2)C1` [compound 314], with 4.76 nM.
As to `O=C(N1CC(OCc2ccc(OC(F)(F)F)cc2)C1)N1CC2(CC(c3nnc(C4CC4)[nH]3)C2)C1` [compound 315], inhibition was half-maximal at 4.93 nM (IC50).
Then `O=C(N1CC(OCc2ccc(S(=O)(=O)C(F)(F)F)cc2)C1)N1CC2(CC(c3nnc(C4CC4)[nH]3)C2)C1` [compound 316], with 6.21 nM; and `N#Cc1cc(C2CC2)ccc1OC1CN(C(=O)N2CC3(CC(c4nnc(C5(O)CC5)[nH]4)C3)C2)C1` [compound 317], with 7.18 nM.
In the case of `COC(=O)C(C)(C)c1cccc(OC2CN(C(=O)N3CC4(CC(c5nnc(C6CC6)[nH]5)C4)C3)C2)c1` [compound 318] it was 7.3 nM; in that of `O=C(N1CC(Oc2ccc(C(F)(F)F)c(C3CC3)c2)C1)N1CC2(CC(c3nnc(C4(O)CC4)[nH]3)C2)C1` [compound 319], 8.04 nM.
Then `O=C(N1CC(OCc2ccc(F)cc2Cl)C1)N1CC2(CC(c3nnc(C4CC4)[nH]3)C2)C1` [compound 320], with 8.28 nM.
`O=C(N1CC(OCc2cccc(S(=O)(=O)C(F)(F)F)c2)C1)N1CC2(CC(c3nnc(C4CC4)[nH]3)C2)C1` [compound 321] had a concentration for half-maximal inhibition (IC50) of 10.8 nM.
`O=C(N1CC(Oc2cccc(C3CC3)c2F)C1)N1CC2(CC(c3nnc(C4(O)CC4)[nH]3)C2)C1` [compound 322]: the IC50 amounted to 11.7 nM.
